We go through one compound from patent US20080039522A1, “Composition Containing a Complex Comprising a Metal Ion and a Carboxylate Ligand Having Anti-Inflammatory Activity” (Medical Therapies Limited, priority 2004, published 2008).

For series [1], the system named is Sprague-Dawley rats. Description: Anti-inflammatory activity (rat paw oedema) of topical creams. The class given is in vivo. As to conditions: topical emulsifying cream. The procedure: All rat experiments were performed as outlined in Example 7, except for the following changes. In Vivo Anti-inflammatory Activity and Gastric Toxicity. For topical administration, rats were treated with test compositions containing [Cu2(Indo)4(OH2)2] (“CuIndo”), [Zn(Indo)2(OH2)2] (“ZnIndo”), IndoH, or an equivalent Indo and Cu dose of a physical mixture of [Cu2(OAc)4(OH2)2] and IndoH thoroughly mixed in an emulsifying cream (see below). An amount of 0.2 g of the composition was applied to the right hind paw of each animal and gently massaged in for 1 minute at three-hourly intervals. Inflammation was induced at the final topical application with an injection of carrageenan (0.1 mL, 1% w/v in isotonic saline) into the plantar region of the hind paw. The composition for topical application was a composition comprising 0.5-2% w/w of Indo delivered as [Cu2(Indo)4(OH2)2] (“CuIndo”), [Zn(Indo)2(OH2)2] (“ZuIndo”), IndoH or an equivalent Indo and Cu dose of a physical mixture of [Cu2(OAc)4(OH2)2] and IndoH in an emulsifying cream, the emulsifying cream consisting of: […]

In series [2] the test system is Sprague-Dawley rats. Description: Acute gastric ulceration after oral administration. It is filed as in vivo, rat. As to conditions: rat, in vivo. The procedure:
Gastrointestinal Ulceration: To assess gastric damage, rats (n=4 per group) were fasted overnight with free access to water prior to the oral administration (non-anaesthetized) of the Test Samples or Test Compositions via oral gavage. The controls were dosed with CMC (2%) solution. Three hours after dosing, the rats were euthanised and the stomach was excised and opened by incision along the greater curvature. The stomach was rinsed, submerged in 10% formaldehyde for 1 h and examined to determine the extent of macroscopic gastric damage.
The total volume of the MCT or carbopol paste compositions administered per dose in the assessment of gastrointestinal ulceration was no more than 0.5 g.
In order to illustrate the adverse effects of decomposition of the copper complex in the formulation, the gastric toxicity of IndoH, Cu-acetate, a physical mixture of Cu-acetate and IndoH and [Cu2(Indo)4(DMF)2] were tested at equivalent doses of Indo (10 mg kg^−1) and/or Cu in the MCT paste or a 2% (w/v) aqueous solution of carboxymethylcellulose (CMC). The MCT paste formulations were prepared as described in Example 3 but using IndoH, Cu-acetate, a physical mixture of Cu-acetate and IndoH, or [Cu2(Indo)4(DMF)2] instead of [Cu2(Indo)4(OH2)2]. The gastric toxicity was tested as described above. The results of these experiments are illustrated in FIG. 3.
In further experiments designed to test the toxicity of solutions of the Cu complex, the [Cu2(Indo)4(DMF)2] complex was dissolved in DMF and gastric toxicities were assessed. […] Similar results would be expected using other complexes, including [Cu2(Indo)4(OH2)2], in a non-colloidal solution.

The test system of series [3] is Sprague-Dawley rats. Nature of the series: Observation of the site of the subcutaneous injection. It is filed as in vivo, rat. As to conditions: subcutaneous, in MCT oil, all doses. The procedure:
In Vivo Anti-inflammatory Activity and Gastric Toxicity. Groups of four rats were used for all studies. All doses were calculated as equivalent concentrations of Indo. […] For subcutaneous and intramuscular administration, rats were injected with 125-200 μL volumes of the test compositions (IndoH or [Cu2(Indo)4(OH2)2] in MCT oil). The control cohort was injected with equivalent volumes of neat MCT. Subcutaneous injections were made in the lower dorsal surface and intramuscular injections were made in the right hind thigh muscle. Inflammation was induced 1 h after dosing by injection of the formulation by an injection of carrageenan (0.1 mL, 1% w/v in isotonic saline) into the plantar region of the hind paw.

With `COc1ccc2c(c1)c(CC(=O)[O-])c(C)n2C(=O)c1ccc(Cl)cc1.COc1ccc2c(c1)c(CC(=O)[O-])c(C)n2C(=O)c1ccc(Cl)cc1.COc1ccc2c(c1)c(CC(=O)[O-])c(C)n2C(=O)c1ccc(Cl)cc1.COc1ccc2c(c1)c(CC(=O)[O-])c(C)n2C(=O)c1ccc(Cl)cc1.O.O.[Cu+2].[Cu+2]` [[Cu2(Indo)4(OH2)2]], the “Efficacy (% inhib)” value is recorded as 12.2 % inhib in series [1] (conc. 0.5 % equiv of Indo), 73 % inhib in series [1] (conc. 0.75 % equiv of Indo), 52 % inhib in series [1] (conc. 1 % equiv of Indo) and 55.2 % inhib in series [1] (conc. 2 % equiv of Indo). In addition, in series [2], the “gastric toxicity as % of that of an equivalent dose of IndoH” value is “approximately 8%”. The “reduction of gastric toxicity versus free IndoH” value in series [2] worked out at 50%. Moreover, the “adverse effect at the site of the injection” value in series [3] is given as “None of the rats exhibited soreness, swelling, redness or any other adverse effect”.
